Earlier results as cited in US7579489B2, “Processes for the preparation and purification of hydroxymethylfuraldehyde and derivatives” (Archer-Daniels-Midland Company, priority 2004, dated 2009).

Details: water/octanol; values taken from Hansch & Leo (1979) and Leo, Hansch & Elkins (1971)

| SMILES | Log P |
| --- | --- |
| CCC(C)=O [2-Butanone] | 0.29 |
| CCCCCC(C)=O [2-Heptanone] | 1.83 |
| CCCC(C)=O [2-Pentanone] | 0.91 |
| CCCCOC(C)=O [Butyl acetate] | 1.71 |
| ClC(Cl)Cl [Chloroform] | 2.24 |
| C1COCCO1 [Dioxane] | −0.27 |
| CCOC(C)=O [Ethyl acetate] | 0.66 |
| NC=O [Formamide] | −1.51 |
| CC(=O)CC(C)C [Methyl isobutyl ketone] | 1.32 |
